This is an account of results in PMC7026418, “The kinase polypharmacology landscape of clinical PARP inhibitors” (Scientific Reports, 2020).

The structures appear in SMILES notation.

Test in all cases: biochemical
Common to all, as to set-up: Reaction Biology HotSpot radiometric 33P-ATP catalytic assay at Km ATP; percent inhibition versus DMSO, mean n=2
Holding throughout (settings): Km ATP

For one test, the target named is HIPK2 (Homo sapiens, UniProt Q9H2X6). An excerpt:
(§1) Unreacted phosphate is removed via washing the filters.

For another test, the target named is T1, HASPIN (Homo sapiens, UniProt Q8TF76).
T1 sequence (Q8TF76 1-798): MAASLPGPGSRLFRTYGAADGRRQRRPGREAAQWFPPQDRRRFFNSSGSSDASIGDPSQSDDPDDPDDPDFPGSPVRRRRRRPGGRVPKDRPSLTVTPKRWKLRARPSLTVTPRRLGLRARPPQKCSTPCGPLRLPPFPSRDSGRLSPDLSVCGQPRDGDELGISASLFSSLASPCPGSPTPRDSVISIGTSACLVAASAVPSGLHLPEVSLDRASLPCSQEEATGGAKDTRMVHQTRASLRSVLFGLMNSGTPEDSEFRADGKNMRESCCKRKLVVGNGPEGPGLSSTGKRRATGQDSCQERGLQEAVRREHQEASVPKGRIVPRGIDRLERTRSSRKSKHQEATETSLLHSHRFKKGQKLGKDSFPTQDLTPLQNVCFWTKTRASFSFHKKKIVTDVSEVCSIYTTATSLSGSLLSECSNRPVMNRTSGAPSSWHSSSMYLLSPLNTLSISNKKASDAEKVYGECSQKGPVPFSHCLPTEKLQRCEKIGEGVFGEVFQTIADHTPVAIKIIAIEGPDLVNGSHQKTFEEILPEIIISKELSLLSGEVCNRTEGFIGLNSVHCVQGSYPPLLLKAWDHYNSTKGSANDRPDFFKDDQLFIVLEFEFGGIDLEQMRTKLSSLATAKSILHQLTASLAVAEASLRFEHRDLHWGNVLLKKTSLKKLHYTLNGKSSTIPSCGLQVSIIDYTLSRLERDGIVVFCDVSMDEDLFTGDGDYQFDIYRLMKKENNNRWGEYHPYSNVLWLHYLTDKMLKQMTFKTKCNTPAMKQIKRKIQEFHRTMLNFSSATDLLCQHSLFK
Excerpt: as §1

A further test concerns the target CIT (Homo sapiens, UniProt O14578).
Excerpt: as §1

Another test concerns the target PIM3 (Homo sapiens, UniProt Q86V86).
Excerpt: as §1

A further test deals with PIM2 (Homo sapiens, UniProt Q9P1W9).
Excerpt: as §1

In a further test the target is CSNK2A1 (Homo sapiens, UniProt P68400).
CSNK2A1, sequence (P68400 whole entry): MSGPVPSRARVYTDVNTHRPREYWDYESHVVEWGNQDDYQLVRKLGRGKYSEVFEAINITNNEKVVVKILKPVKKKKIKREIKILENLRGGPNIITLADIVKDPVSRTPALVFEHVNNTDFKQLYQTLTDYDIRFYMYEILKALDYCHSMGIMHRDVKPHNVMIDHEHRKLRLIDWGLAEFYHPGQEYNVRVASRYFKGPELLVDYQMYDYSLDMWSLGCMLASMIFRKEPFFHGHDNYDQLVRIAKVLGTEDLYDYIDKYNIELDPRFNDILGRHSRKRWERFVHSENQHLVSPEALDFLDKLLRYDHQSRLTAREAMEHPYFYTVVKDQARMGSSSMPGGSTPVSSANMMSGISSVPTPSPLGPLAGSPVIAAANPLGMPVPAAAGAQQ
Excerpt: as §1

Another test concerns the target CSNK2A2 (Homo sapiens, UniProt P19784).
Excerpt: as §1

Another test deals with T2, MYLK4 (Homo sapiens, UniProt Q86YV6).
T2 sequence (Q86YV6 1-388): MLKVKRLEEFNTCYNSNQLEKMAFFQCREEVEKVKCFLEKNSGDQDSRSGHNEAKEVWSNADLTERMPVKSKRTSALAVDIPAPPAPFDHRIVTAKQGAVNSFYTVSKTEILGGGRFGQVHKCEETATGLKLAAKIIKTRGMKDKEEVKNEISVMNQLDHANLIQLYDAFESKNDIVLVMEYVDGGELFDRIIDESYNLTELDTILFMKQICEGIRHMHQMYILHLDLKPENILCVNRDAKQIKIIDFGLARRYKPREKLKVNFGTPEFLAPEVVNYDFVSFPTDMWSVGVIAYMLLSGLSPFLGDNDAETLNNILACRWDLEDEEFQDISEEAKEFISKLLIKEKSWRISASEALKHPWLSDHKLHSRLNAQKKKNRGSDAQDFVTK
Excerpt: as §1

The target in another test is HIPK3 (Homo sapiens, UniProt Q9H422).
HIPK3, sequence (Q9H422 whole entry): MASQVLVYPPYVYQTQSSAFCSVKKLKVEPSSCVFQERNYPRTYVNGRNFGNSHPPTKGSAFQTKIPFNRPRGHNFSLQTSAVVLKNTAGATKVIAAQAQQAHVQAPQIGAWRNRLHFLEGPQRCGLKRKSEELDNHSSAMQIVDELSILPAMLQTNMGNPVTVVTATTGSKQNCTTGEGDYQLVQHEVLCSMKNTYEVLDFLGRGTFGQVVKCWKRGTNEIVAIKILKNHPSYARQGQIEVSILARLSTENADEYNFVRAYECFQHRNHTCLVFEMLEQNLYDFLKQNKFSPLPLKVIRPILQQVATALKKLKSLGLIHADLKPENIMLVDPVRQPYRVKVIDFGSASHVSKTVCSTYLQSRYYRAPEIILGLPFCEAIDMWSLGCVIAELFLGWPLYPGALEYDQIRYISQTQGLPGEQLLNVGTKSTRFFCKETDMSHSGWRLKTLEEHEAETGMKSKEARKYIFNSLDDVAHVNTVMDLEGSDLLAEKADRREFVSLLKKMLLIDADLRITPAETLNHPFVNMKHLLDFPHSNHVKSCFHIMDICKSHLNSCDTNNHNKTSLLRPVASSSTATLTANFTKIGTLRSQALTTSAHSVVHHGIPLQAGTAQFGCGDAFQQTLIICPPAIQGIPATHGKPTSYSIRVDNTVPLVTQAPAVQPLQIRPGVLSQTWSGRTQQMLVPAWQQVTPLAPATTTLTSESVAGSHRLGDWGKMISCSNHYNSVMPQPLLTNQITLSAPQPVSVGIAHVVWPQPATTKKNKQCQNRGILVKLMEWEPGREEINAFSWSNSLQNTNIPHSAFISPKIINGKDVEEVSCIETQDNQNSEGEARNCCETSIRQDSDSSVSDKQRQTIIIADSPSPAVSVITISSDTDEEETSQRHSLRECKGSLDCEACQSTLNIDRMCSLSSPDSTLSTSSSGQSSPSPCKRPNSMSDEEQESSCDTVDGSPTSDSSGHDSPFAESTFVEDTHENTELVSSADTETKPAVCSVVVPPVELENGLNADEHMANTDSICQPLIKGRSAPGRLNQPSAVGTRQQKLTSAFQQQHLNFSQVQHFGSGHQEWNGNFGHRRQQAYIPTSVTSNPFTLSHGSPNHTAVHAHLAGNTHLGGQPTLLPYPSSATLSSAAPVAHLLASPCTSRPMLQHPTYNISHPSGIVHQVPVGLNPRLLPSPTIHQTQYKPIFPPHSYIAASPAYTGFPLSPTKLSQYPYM
Excerpt: as §1

The target in another test is STK17A (Homo sapiens, UniProt Q9UEE5).
Excerpt: as §1

The target in another test is T3, CDK16 (Homo sapiens, UniProt Q00536).
T3 construct: with cyclin Y
T3 sequence (Q00536 whole entry): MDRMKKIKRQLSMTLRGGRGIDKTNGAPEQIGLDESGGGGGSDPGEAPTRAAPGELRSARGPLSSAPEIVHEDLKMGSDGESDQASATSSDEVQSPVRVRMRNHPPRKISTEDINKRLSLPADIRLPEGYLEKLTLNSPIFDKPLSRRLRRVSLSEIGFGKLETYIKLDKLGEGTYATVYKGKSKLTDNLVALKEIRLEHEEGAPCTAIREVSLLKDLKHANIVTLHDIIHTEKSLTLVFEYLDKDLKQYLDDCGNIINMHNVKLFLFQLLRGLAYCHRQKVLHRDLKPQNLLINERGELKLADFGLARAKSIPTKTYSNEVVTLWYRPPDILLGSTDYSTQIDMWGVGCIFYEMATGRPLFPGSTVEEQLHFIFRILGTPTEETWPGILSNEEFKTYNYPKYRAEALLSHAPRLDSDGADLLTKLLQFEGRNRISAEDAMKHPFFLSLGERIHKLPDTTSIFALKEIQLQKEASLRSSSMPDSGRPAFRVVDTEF
T3 sequence (Q8ND76 2-341 partner): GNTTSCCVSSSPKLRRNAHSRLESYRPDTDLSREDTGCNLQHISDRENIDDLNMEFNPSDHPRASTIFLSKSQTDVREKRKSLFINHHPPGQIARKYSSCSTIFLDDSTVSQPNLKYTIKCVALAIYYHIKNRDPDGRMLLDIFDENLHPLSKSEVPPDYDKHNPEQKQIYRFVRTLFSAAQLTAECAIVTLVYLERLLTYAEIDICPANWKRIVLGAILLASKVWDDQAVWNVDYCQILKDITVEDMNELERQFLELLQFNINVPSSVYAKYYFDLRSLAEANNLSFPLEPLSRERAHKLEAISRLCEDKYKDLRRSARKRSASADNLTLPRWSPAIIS
Excerpt: as §1

A further test concerns the target CDK4-cyclinD3 (Homo sapiens, UniProt P11802).
Excerpt: as §1

CSNK2A2, sequence (P19784 whole entry): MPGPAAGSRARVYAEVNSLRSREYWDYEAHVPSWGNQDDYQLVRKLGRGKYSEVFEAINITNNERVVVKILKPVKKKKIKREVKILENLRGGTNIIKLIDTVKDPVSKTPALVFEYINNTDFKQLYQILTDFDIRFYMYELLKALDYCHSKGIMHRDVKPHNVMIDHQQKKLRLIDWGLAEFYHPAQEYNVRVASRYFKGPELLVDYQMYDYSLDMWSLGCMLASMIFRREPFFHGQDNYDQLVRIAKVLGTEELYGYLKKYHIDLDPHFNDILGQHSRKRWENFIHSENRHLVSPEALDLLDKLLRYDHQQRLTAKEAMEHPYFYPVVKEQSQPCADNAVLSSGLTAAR
HIPK2, sequence (Q9H2X6 whole entry): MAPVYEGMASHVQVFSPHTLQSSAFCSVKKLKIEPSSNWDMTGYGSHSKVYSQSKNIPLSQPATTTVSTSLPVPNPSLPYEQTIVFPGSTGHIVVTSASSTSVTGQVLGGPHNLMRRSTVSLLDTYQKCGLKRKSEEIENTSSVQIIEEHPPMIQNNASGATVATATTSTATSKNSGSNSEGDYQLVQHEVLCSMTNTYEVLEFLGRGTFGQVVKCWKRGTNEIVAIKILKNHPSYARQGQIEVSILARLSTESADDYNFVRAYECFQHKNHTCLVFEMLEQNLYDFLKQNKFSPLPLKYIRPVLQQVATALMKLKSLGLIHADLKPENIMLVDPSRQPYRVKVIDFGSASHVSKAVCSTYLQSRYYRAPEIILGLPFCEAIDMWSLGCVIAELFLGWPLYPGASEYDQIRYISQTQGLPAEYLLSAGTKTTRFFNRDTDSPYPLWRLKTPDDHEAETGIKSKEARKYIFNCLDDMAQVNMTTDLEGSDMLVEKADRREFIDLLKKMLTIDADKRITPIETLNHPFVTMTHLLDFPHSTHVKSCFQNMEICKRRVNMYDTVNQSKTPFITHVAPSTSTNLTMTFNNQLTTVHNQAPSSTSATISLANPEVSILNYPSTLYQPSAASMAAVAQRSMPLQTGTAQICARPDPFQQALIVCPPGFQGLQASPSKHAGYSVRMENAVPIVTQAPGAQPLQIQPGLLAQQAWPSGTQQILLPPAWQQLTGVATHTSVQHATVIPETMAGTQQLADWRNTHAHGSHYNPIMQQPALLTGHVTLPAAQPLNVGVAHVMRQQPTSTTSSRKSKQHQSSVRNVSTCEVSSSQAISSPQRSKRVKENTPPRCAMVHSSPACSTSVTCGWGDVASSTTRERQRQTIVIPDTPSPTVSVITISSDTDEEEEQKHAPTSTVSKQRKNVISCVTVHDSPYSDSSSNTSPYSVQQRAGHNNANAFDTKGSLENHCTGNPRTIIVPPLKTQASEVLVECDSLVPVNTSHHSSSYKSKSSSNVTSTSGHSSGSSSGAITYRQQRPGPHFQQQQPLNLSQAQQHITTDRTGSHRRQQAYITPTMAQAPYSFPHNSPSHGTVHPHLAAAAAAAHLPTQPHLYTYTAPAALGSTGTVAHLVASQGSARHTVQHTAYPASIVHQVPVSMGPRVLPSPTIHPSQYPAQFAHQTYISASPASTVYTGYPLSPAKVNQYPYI
CDK4-cyclinD3, sequence (P11802 whole entry): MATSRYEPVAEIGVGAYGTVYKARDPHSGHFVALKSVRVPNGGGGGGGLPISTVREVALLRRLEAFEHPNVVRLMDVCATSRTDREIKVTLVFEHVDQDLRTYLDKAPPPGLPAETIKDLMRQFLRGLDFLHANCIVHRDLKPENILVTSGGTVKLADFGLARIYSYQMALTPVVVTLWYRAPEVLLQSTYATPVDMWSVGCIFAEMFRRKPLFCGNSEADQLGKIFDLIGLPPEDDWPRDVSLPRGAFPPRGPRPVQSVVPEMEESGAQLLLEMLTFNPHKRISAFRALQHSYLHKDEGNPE
CDK4-cyclinD3, sequence (P30281 whole entry partner): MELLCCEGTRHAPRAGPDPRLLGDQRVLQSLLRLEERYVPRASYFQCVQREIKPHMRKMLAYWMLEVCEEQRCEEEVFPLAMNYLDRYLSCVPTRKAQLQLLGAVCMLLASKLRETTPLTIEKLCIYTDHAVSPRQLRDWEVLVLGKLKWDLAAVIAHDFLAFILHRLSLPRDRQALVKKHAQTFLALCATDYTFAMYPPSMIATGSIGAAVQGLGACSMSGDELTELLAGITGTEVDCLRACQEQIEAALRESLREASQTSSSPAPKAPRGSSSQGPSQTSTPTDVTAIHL

On to `NC(=O)c1cccc2cn(-c3ccc([C@@H]4CCCNC4)cc3)nc12` [Niraparib], for which the inhibition at 1 µM on HIPK2 was 23%; on HASPIN, 10%; against CIT, 10%; against PIM3, 15%; against PIM2 it was -5%; at CSNK2A1 it was 12%. Also, the inhibition at 1 µM against CSNK2A2 was -1%; against MYLK4, 19%; on HIPK3, 5%.

Take `CNCc1ccc(-c2[nH]c3cc(F)cc4c3c2CCNC4=O)cc1` [Rucaparib]: the inhibition at 1 µM is -6% at HIPK2; -6% against HASPIN; 15% against CIT; -6% at STK17A; 82% on CDK16; 21% against CSNK2A1. Also, the inhibition at 1 µM against CSNK2A2 is 17%; against HIPK3, -12%; on CDK4-cyclinD3 it was 10%.

Broadly, the inhibition is the change of the read-out against control, counted positive when it falls.
